Test results taken from PubChem BioAssay AID816 (SRMLSC, 2007).
Calls of active or inactive are those of the source. No rule for the calls is given here.

System: S. cerevisiae GAL1 promoter reporter activation counterscreen
Assay: GAL1 promoter activators in yeast, artefact control for yeast lifespan extension project, S. cerevisiae (AID 816);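 also: yeast growth read after 24 h of incubation with compounds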

CCOc1ccc(/C=C2/C(=O)NC(=O)N(CCc3ccc(F)cc3)C2=O)cc1 was tested, and the EC50 was > 40 µM (inactive).
In the case of O=C1Nc2ccccc2C12OCC1(CO2)COC2(OC1)C(=O)Nc1ccccc12 (configuration not stated), the EC50 is reported as > 40 µM (inactive).
In the case of CCOC(=O)C1C(c2cccs2)NC(=O)N(C)C1(O)C(F)(F)F (configuration not stated), the EC50 is reported as > 40 µM (inactive).
O=C(NC(=S)Nc1nc2c(s1)CSc1ccccc1-2)c1ccccc1 was tested, and the EC50 was > 40 µM (inactive).
For O=Cc1cc2ccccc2nc1SCc1ccc(Cl)cc1, the EC50 was > 40 µM (inactive).
CC(=O)C(C(C)=O)c1c(Cl)c(O)c(O)c2c(C(=O)c3ccccc3)coc12 was tested, and the EC50 was > 40 µM (inactive).
With CC(=O)c1c(O)cc2n(c1=O)-c1ccc(Cl)cc1C2(C)C the EC50 was > 40 µM (inactive).
With COc1ccc(N(C)C(=S)Nc2ccc3nc(C)c(C)nc3c2)cc1 the EC50 was > 40 µM (inactive).
COc1ccc(-c2noc(CSc3nnc(-c4ccncc4)n3-c3ccc(F)cc3)n2)cc1OC was tested, and the EC50 was > 40 µM (inactive).
With CCCCC(=O)Nc1ccc(C(=O)NNC(=S)NC(=O)c2cccs2)cc1 the EC50 was > 40 µM (inactive).
For COc1ccccc1N(CN1CCCC1=O)C(=O)c1c(F)cccc1F, the EC50 was > 40 µM (inactive).
With CCCCOC(=O)n1c(=O)oc2cc(S(=O)(=O)N3CCCCC3)ccc21 the EC50 was > 40 µM (inactive).
For Fc1cccc2sc(Nc3nnc(-c4ccccc4)o3)nc12, the EC50 was > 40 µM (inactive).
With Cc1ccc(N2NC(=O)/C(=C\c3cc4c(cc3[N+](=O)[O-])OCO4)C2=O)cc1C the EC50 was > 40 µM (inactive).
For CCCCC(=Nc1ccc(N)cc1)C1=C(O)C(C(=O)OC)C(C)(C)CC1=O (configuration not stated), the EC50 was > 40 µM (inactive).
In the case of CSc1ccc(S(=O)(=O)NCc2ccc(Cl)cc2Cl)cc1, the EC50 is reported as > 40 µM (inactive).
In the case of CCOC(=O)c1[nH]nc(C(=O)c2ccc(Br)cc2)c1O, the EC50 is reported as > 40 µM (inactive).
For Cc1nc2ccccc2n1-c1ccccc1, the EC50 was > 40 µM (inactive).
For CC1(C)CC(=O)C(C(=O)Cc2ccccc2[N+](=O)[O-])C(=O)C1, the EC50 was > 40 µM (inactive).
In the case of CC(C)c1ccc2occ(-c3nn[nH]n3)c(=O)c2c1, the EC50 is reported as > 40 µM (inactive).
For COc1ccc(C(=O)Nc2ccc(OCc3ccccc3)cc2)cc1[N+](=O)[O-], the EC50 was > 40 µM (inactive).
For Cc1cc(C2C(C#N)=C(N)Oc3n[nH]c(C)c32)c(C)s1 (configuration not stated), the EC50 was > 40 µM (inactive).
In the case of O=C1/C(=C/c2cccnc2)CCC/C1=C\c1cccnc1, the EC50 is reported as > 40 µM (inactive).
In the case of CC(c1ccccc1)N1CCn2c(nc3cc(NC(=O)c4cccs4)ccc32)C1 (configuration not stated), the EC50 is reported as > 40 µM (inactive).
For COC(=O)CSc1ncccc1-c1nc2ccccc2[nH]1, the EC50 was > 40 µM (inactive).
In the case of CCOC(=O)CC1=NN(c2ccccc2)C(=O)/C1=C\c1ccc(OC)cc1OC, the EC50 is reported as > 40 µM (inactive).
With CC[n+]1c(/C=C2\C=C(C)CC(C)(C)C2)sc2ccccc21 the EC50 was > 40 µM (inactive).
For CCOC(=O)CS(=O)(=O)c1nc(-c2ccc(F)cc2)cc(C(F)(F)F)n1, the EC50 was > 40 µM (inactive).
CC1(C)CC(=O)c2sc(NS(C)(=O)=O)nc2C1 was tested, and the EC50 was > 40 µM (inactive).
In the case of CCc1[nH]nc2c1C(c1ccc(Br)s1)C(C#N)=C(N)O2 (configuration not stated), the EC50 is reported as > 40 µM (inactive).
For O=C1Nc2cc(Cl)c(Cl)cc2N(O)N1c1cc(Cl)cc(Cl)c1, the EC50 was > 40 µM (inactive).
In the case of CCOC(=O)/C(=C\c1cn(C)c2ccccc12)[N+](=O)[O-], the EC50 is reported as > 40 µM (inactive).
In the case of Cc1ccc(C)c(N2CCN(S(=O)(=O)c3c(C)noc3/C=C/N(C)C)CC2)c1, the EC50 is reported as > 40 µM (inactive).
O=C1CC(c2ccccc2)CC(O)=C1C=NCCN1CCN(C(=O)Cc2ccccc2)CC1 (configuration not stated) was tested, and the EC50 was > 40 µM (inactive).
In the case of Oc1ccc(NCc2ccccc2OCc2ccccc2F)cc1, the EC50 is reported as > 40 µM (inactive).
For CN(c1ccccc1)c1nc2ccsc2c(=O)s1, the EC50 was > 40 µM (inactive).
O=c1c2ccccc2sn1-c1ccccc1 was tested, and the EC50 was > 40 µM (inactive).
Cc1ccc(NC(=O)CN2CCN(CCN=CC3=C(O)CC(c4ccccc4)CC3=O)CC2)cc1 (configuration not stated) was tested, and the EC50 was > 40 µM (inactive).
For COc1ccc(/C(O)=C/C(=O)C(=O)Nc2c(C)n(C)n(-c3ccccc3)c2=O)cc1, the EC50 was > 40 µM (inactive).
CCOC(=O)c1ccccc1N1C(=O)CSC1=S was tested, and the EC50 was > 40 µM (inactive).
In the case of CN(C)CC(C(=O)c1ccccc1)c1ccccc1 (configuration not stated), the EC50 is reported as > 40 µM (inactive).
With O=[N+]([O-])c1c(C(Cl)Cl)nn(-c2ccccc2)c1N1CCCC1 the EC50 was > 40 µM (inactive).
With C[C@]12CC[C@@H]3c4ccc(O)cc4CC[C@H]3[C@@H]1CC[C@@H]2OC(=O)CCC(=O)O the EC50 was > 40 µM (inactive).
In the case of O=C(NCc1ccc(Cl)cc1)c1ccccc1CCc1ccccc1, the EC50 is reported as > 40 µM (inactive).
With CC1CCCN(c2nc3ccccc3nc2C(C#N)C(=O)OC2CCCCC2)C1 (configuration not stated) the EC50 was > 40 µM (inactive).
In the case of O=C(O)Cc1ccc(N=Cc2c(O)ccc3ccccc23)cc1, the EC50 is reported as > 40 µM (inactive).
With COc1ccccc1C(=O)Oc1ccc2c(c1)O/C(=C\c1ccncc1)C2=O the EC50 was > 40 µM (inactive).
In the case of CCCCC(=Nc1ccccc1OC)C1=C(O)CC(c2ccccc2)CC1=O (configuration not stated), the EC50 is reported as > 40 µM (inactive).
For CC1CCCCC1NC(=O)/C(C#N)=C/c1ccccc1F (configuration not stated), the EC50 was > 40 µM (inactive).
With NC(=S)N/N=C/c1coc2cc(Cl)ccc2c1=O the EC50 was > 40 µM (inactive).
For CC(=NCCc1c(C)[nH]c2ccc(C)cc12)C1=C(O)CC(c2ccccc2)CC1=O (configuration not stated), the EC50 was > 40 µM (inactive).
With CCN1C(=O)/C(=C/N(C(C)=O)c2ccccc2)N(c2ccccc2)C1=S the EC50 was > 40 µM (inactive).
In the case of Cc1ccc(NC(=O)Nc2nc(-c3ccc(C)s3)cs2)cc1, the EC50 is reported as > 40 µM (inactive).
For C/C(=N\NC(=O)c1cccc(Cl)c1)C1C(=O)c2ccccc2C1=O, the EC50 was > 40 µM (inactive).
O=C(c1ccccc1)c1nc2ccccc2[nH]c1=O was tested, and the EC50 was > 40 µM (inactive).
CS(=O)(=O)c1nc(-c2cccs2)cc(C(F)(F)F)n1 was tested, and the EC50 was > 40 µM (inactive).
Cc1cc(C=C2C(=O)N(C)C(=S)N(C)C2=O)c(C)n1-c1cccnc1 was tested, and the EC50 was > 40 µM (inactive).
For CN(Cc1c(O)ccc2c1oc(=O)c1ccccc12)C1CCCCC1, the EC50 was > 40 µM (inactive).
In the case of CN1C(=O)C(Cl)(Cl)C(=O)c2ccccc21, the EC50 is reported as > 40 µM (inactive).
With COc1cccc(/C=C2\C(=O)N(c3cccc(C)c3)C(=O)c3ccccc32)c1 the EC50 was > 40 µM (inactive).
COc1ccc(/C=N/NC(=O)c2csc(-n3nc(C)cc3C(F)(F)F)n2)cc1 was tested, and the EC50 was > 40 µM (inactive).
In the case of CCC(C)OC(=O)C1C(c2ccccc2)C(C(=O)O)C1c1ccccc1 (configuration not stated), the EC50 is reported as > 40 µM (inactive).
O=C1NC(=O)N(CCC2=CCCCC2)C(=O)/C1=C\c1cccs1 was tested, and the EC50 was > 40 µM (inactive).
For Cc1ccc(S(=O)(=O)C(C#N)c2nc3ccccc3nc2N2CCCC2)cc1 (configuration not stated), the EC50 was > 40 µM (inactive).
With O=c1c(Cl)c(NCCCO)cnn1-c1nc2ccccc2[nH]1 the EC50 was > 40 µM (inactive).
For CCOc1ccc(NCc2nc3ccccc3n2CCOc2ccccc2)cc1, the EC50 was > 40 µM (inactive).
In the case of Cc1cc(N=Cc2c(O)ccc3ccccc23)no1, the EC50 is reported as > 40 µM (inactive).
O=C(NCC1CCCO1)c1c(O)c2ccccc2[nH]c1=O (configuration not stated) was tested, and the EC50 was > 40 µM (inactive).
CN=C(SCc1cc2c(cc1Cl)OCO2)c1c(O)n(C)c(=O)n(C)c1=O was tested, and the EC50 was > 40 µM (inactive).
With CCCCSc1[nH]c(=O)c(C(=O)OCC)cc1C#N the EC50 was > 40 µM (inactive).
O=C(Nc1cccnc1)c1c(O)c2cccc3c2n(c1=O)CC3 was tested, and the EC50 was > 40 µM (inactive).
With Cc1ccc(NC(=O)C2C(=O)N(C)c3ccccc32)cc1 (configuration not stated) the EC50 was > 40 µM (inactive).
